Assay in all cases: inhibition of tumour cell growth, NCI panel, 48 h
The subject of assay [1] is A549 NSCLC.
The test system of assay [2] is BT-549 breast.
The subject of assay [3] is HS 578T breast.
Assay [4] deals with MCF7 breast.
Assay [5] deals with NCI-H522 lung.
The subject of assay [6] is OVCAR-8 ovarian.
Assay [7] relates to PC-3 prostate.
The subject of assay [8] is SF-295 CNS.
For assay [9], the system named is TK-10 renal.
Assay [10] relates to UO-31 renal.

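Growth conditions: 96-well plates. Treatment: test compound, 48 hours, 5 concentrations. Analysis: linear interpolation between bracketing concentrations; unreached endpoints set to highest concentration. The concentration for 50% growth inhibition is given as GI50. TGI: concentration producing complete growth inhibition.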

Turning to `CN(C)CCNC(=O)c1cc2c3cc(Cl)ccc3[nH]c2c2ncccc12`, the GI50 in assay [1] was 1.93 µM; in assay [2], 2.26 µM; in assay [3], 1.87 µM; in [4] it was 1.8 µM; in assay [5] it was 2.26 µM; in assay [6] it was 2.57 µM. The GI50 was 3.62 µM in [7], 22.8 µM in assay [8], 3.81 µM in assay [9] and 1.1 µM in assay [10]. Besides, the TGI in assay [1] stood at 4.7 µM; in [2] it was 7.98 µM; in [3] it was 9.66 µM; in [4], 4.78 µM; in [5] it was 7.11 µM; in assay [6], 12.7 µM. Also, the TGI in [7] was 14.8 µM; in assay [8] it was 59.6 µM; in [9], 13.4 µM; in assay [10], 2.49 µM.

Consider `Cn1ncnc1[C@@H]1c2n[nH]c(=O)c3cc(F)cc(c23)N[C@H]1c1ccc(F)cc1`, for which the GI50 in assay [1], in assay [2], in assay [3], in assay [4], in assay [5] and in [6] was > 100 µM each time. For the same compound, the figures for the GI50 in assay [7], in assay [9] and in assay [10] were > 100 µM, > 100 µM and 83.3 µM, respectively. For the same compound, the TGI in assay [1], in assay [2], in [3], in assay [4], in [5] and in assay [6] was > 100 µM in each case. In addition, the TGI in assay [7], in assay [9] and in [10] was > 100 µM throughout.

On to `COC(=O)[C@@H](C)C[C@H](Cc1ccccc1)NC(=O)c1nc([C@@H](C[C@H](C(C)C)N(C)C(=O)[C@@H](NC(=O)[C@H]2C[C@H](O)CCN2C)C(C)C)OC(C)=O)sc1C(C)C`, for which the GI50 in assay [1] is 0.0519 µM; in [2], 0.00416 µM; in [3] it was 0.0122 µM; in [4] it was < 0.00111 µM; in [5], 0.00186 µM; in [6] it was 0.0193 µM. For the same compound, the GI50 is 0.00391 µM in assay [7], 0.0164 µM in assay [8], 0.319 µM in assay [9] and 0.504 µM in assay [10]. In addition, the TGI is > 11.1 µM in [1]; 0.131 µM in [2]; > 8.26 µM in assay [3]; > 11.1 µM in [4]; > 11.1 µM in assay [6]; > 11.1 µM in [7]. For the same compound, the TGI in assay [8], in assay [9] and in [10] was > 11.1 µM each time.

On to `CCOc1ccc(N(C)c2ccc(/C=C/C3=[N+](C)c4ccccc4C3(C)C)cc2)cc1`, for which the GI50 in [1] is 0.201 µM; in assay [2] it was 0.216 µM; in assay [3], 0.314 µM; in assay [4] it was 0.498 µM; in assay [5], 0.167 µM; in [6], 0.117 µM. The GI50 in assay [7] is 0.0759 µM; in assay [8] it was 0.47 µM; in assay [10], 0.449 µM. In addition, the TGI in [1] came to 1.35 µM; in [2] it was 1.16 µM; in assay [3], 2 µM; in assay [4], 2.79 µM; in [5] it was 0.78 µM; in assay [6] it was 1.17 µM. Further, the TGI was found to be 0.793 µM in [7], 3.89 µM in [8] and 1.79 µM in assay [10].

For `CC(C)(C)CC(C)(C)c1ccc(OCCO)cc1`, the GI50 was 9.04 µg/mL in [1]; 2.49 µg/mL in [2]; 4.26 µg/mL in [3]; 4.01 µg/mL in assay [4]; 1.21 µg/mL in assay [5]; 3.31 µg/mL in assay [6]. For the same compound, the values for the GI50 in [7], in assay [8] and in assay [9] were 3.26 µg/mL, 1.07 µg/mL and 10.6 µg/mL, respectively. The TGI is > 75 µg/mL in assay [1]; 11.9 µg/mL in [2]; 19.6 µg/mL in assay [3]; 17 µg/mL in [4]; 11.1 µg/mL in [5]; > 75 µg/mL in assay [6]. Besides, the figures for the TGI in assay [7], in [8] and in [9] were 16 µg/mL, 8.56 µg/mL and 33 µg/mL, respectively.

In the case of `CCN(Cc1ccc(OC)cc1)c1ccc(CO)c(Cl)c1`, the GI50 was 2.62 µM in assay [1]; 12.7 µM in assay [2]; 22.1 µM in assay [3]; 0.163 µM in [4]; 16.6 µM in assay [5]; 14 µM in assay [6]. For the same compound, the results for the GI50 in assay [7], in [8] and in assay [10] were 21.7 µM, 1.31 µM and 6.18 µM, respectively. For the same compound, the TGI in assay [1] was 35.9 µM; in assay [2] it was 37.4 µM; in [3] it was > 86.1 µM; in assay [4], 15.7 µM; in assay [5], 46.7 µM; in assay [6], 52.4 µM. The TGI in [7] is > 81.8 µM; in assay [8], 31.5 µM; in [10], 39.6 µM.

Regarding `CNC(=O)Oc1cc(C(C)C)ccc1Sc1ccc(C(C)C)cc1OC(=O)NC`, the GI50 in assay [1] is 5.22 µM; in assay [2] it was 3.44 µM; in [3] it was 4.7 µM; in assay [4], 5.49 µM; in [5], 4.98 µM; in assay [6] it was 5.42 µM. The results for the GI50 in [7], in assay [9] and in [10] were 2.97 µM, 14 µM and 3.28 µM, respectively. Moreover, the TGI in assay [1] was 18.4 µM; in assay [2], 12 µM; in assay [3], 35.6 µM; in assay [4], 18.2 µM; in assay [5], 19.1 µM; in [6], 27.9 µM. Moreover, the values for the TGI in assay [7], in [9] and in assay [10] were 16.9 µM, 30.3 µM and 16.6 µM, respectively.

For `C/C(=C\C(=O)O[C@H]1[C@@H]2[C@H](C)CC[C@H]2[C@]2(C)O[C@@]1(C1CCCCC1)C[C@H]2OC(=O)CO)c1ccccc1`, the GI50 in [1] was 6.61 µM; in [2], 0.12 µM; in assay [3] it was 0.0101 µM; in assay [4], 5.4 µM; in assay [5], 6.55 µM; in [6], 4.27 µM. Also, the GI50 was 5.05 µM in assay [7], 6.08 µM in assay [8] and 7.6 µM in assay [9]. The TGI in [1] turned out to be 12.4 µM; in assay [2] it was 4.21 µM; in [3], 0.0295 µM; in [4] it was 11.9 µM; in assay [5] it was 13.1 µM; in assay [6], 10.7 µM. Moreover, the TGI in assay [7] is 10.9 µM; in [8], 11.7 µM; in assay [9], 14.7 µM.
